Biological target: T1, DvhD (DVU1020), cytoplasmic fragment (PAS and HD-GYP domains) (Nitratidesulfovibrio vulgaris, UniProt Q72DA9)
T1 sequence (Q72DA9 374-701): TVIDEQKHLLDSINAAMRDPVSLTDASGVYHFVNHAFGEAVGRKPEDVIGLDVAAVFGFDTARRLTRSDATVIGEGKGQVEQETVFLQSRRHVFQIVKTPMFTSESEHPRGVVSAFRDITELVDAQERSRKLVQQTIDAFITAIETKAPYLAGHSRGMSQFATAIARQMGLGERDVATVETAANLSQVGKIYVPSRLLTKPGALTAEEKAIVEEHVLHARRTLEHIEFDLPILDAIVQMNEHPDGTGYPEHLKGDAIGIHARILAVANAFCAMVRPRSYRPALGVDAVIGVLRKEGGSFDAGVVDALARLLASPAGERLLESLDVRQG
Assay: isothermal titration calorimetry
Type: binding

A Kd of 322 ± 81 nM was found for `Nc1nc2c(ncn2[C@@H]2O[C@@H]3CO[P@](=O)(O)O[C@H]4[C@@H](O)[C@H](n5cnc6c(=O)[nH]c(N)nc65)O[C@@H]4CO[P@](=O)(O)O[C@H]3[C@H]2O)c(=O)[nH]1` [c-di-GMP] in this work.
